Source: patent US11116817B2, “Antimicrobial agents and compositions comprising the same” (THE CURATORS OF THE UNIVERSITY OF MISSOURI, priority 2017, dated 2021)
Positions of bridges follow the written chain, without caps; N, C: chain ends. Non-standard residues stand in square brackets, D forms with d. No end group written: not given here. Abu = CC[C@H](N)C(=O)O

Experiments:
[1] = tested on: Salmonella enteric serovar Typhimurium (ATCC 14028); assay: Antimicrobial activity assay (colony counting), Example Two; assay type: cell-based, S. Typhimurium; conditions: 2 to 128 μg/ml, 37° C., 2 hours
Procedure: Escherichia coli (ATCC 25922), Pseudomonas aeruginosa (ATCC 27853), Salmonella enteric serovar Typhimurium (ATCC 14028) and Staphylococcus aureus (ATCC 29213) were used to assess the antimicrobial activity of AvBD analogues (SEQ ID NOs: 5, 6, 7, 8, 9, 10, 11, 12, and 13). All bacterial strains were grown on Luria-Bertani (LB) agar plates or Trypticase Soy Agar with 5% Sheep Blood (TSA, Thermo Fisher Scientific) plates at 37° C. Antimicrobial activity was determined by a colony counting assay. In brief, bacteria were suspended in 100-fold diluted Mueller Hinton broth with 5 mM NaCl (minimal growth medium) to obtain a final bacterial concentration of 2×10^5 CFU/ml. Twenty-five microliters of bacterial suspension and 25 μl of AvBD analogue (SEQ ID NOs: 5, 6, 7, 8, 9, 10, 11, 12, and 13) solution were mixed in the wells of a 96-well polypropylene microtiter plate (Nunc™, Thermo Fisher Scientific). The final peptide concentrations were 2, 4, 8, 16, 32, 64 and 128 μg/ml. The minimal growth medium without AvBD peptide (SEQ ID NO: 5, 6, 7, 8, 9, 10, 11, 12, and 13) was included as a negative control. The bacterial-peptide mixtures were incubated at 37° C. for 2 hours, 10-fold serially diluted and plated on LB agar plates. […] Antimicrobial activity was expressed as percent of killing using the following formula: (CPUcontrol−CFUtreated)/CFUcontrol×100%. […]

[2] = tested on: P. aeruginosa (ATCC 27853); assay type: cell-based; conditions: low salt condition (5 mM NaCl)
Procedure: The minimum inhibitory concentrations (MIC) of AvBDs (SEQ ID NOs: 5, 6, 7, 8, 9, 10, 11, 12, and 13) were determined under low salt and standard conditions according to the guidelines of the Clinical and Laboratory Standards Institute (CLSI). […] An equal volume […] of bacterial suspension was added to each well of the plate. The final bacterial concentration in the wells was 5×10^5 CFU/ml. […] To complement MIC-1s assays, the minimum bactericidal concentrations (MBC) were evaluated by sub-culturing the contents of the first two clear wells obtained in the MIC-1s assay onto LB agar plates. All assays were conducted in triplicate. The lowest peptide concentration inhibiting about, at least, or more than 99% of bacterial growth was defined as MBC-1s. The analogues were regarded as bactericidal when the MBC was determined to be no more than four times the MIC.

[3] = tested on: E. coli, S. Typhimurium, P. aeruginosa and S. aureus; assay: Antimicrobial activity assay (colony counting), Example Two, statements over all four bacteria; assay type: cell-based; conditions: for impact of NaCl on the killing activity: NaCl 5 to 150 mM; for killing activity compared with parent peptide: 2 to 128 μg/ml, 37° C., 2 hours
Procedure: Escherichia coli (ATCC 25922), Pseudomonas aeruginosa (ATCC 27853), Salmonella enteric serovar Typhimurium (ATCC 14028) and Staphylococcus aureus (ATCC 29213) were used to assess the antimicrobial activity of AvBD analogues (SEQ ID NOs: 5, 6, 7, 8, 9, 10, 11, 12, and 13). All bacterial strains were grown on Luria-Bertani (LB) agar plates or Trypticase Soy Agar with 5% Sheep Blood (TSA, Thermo Fisher Scientific) plates at 37° C. Antimicrobial activity was determined by a colony counting assay. In brief, bacteria were suspended in 100-fold diluted Mueller Hinton broth with 5 mM NaCl (minimal growth medium) to obtain a final bacterial concentration of 2×10^5 CFU/ml. Twenty-five microliters of bacterial suspension and 25 μl of AvBD analogue (SEQ ID NOs: 5, 6, 7, 8, 9, 10, 11, 12, and 13) solution were mixed in the wells of a 96-well polypropylene microtiter plate (Nunc™, Thermo Fisher Scientific). The final peptide concentrations were 2, 4, 8, 16, 32, 64 and 128 μg/ml. The minimal growth medium without AvBD peptide (SEQ ID NO: 5, 6, 7, 8, 9, 10, 11, 12, and 13) was included as a negative control. The bacterial-peptide mixtures were incubated at 37° C. for 2 hours, 10-fold serially diluted and plated on LB agar plates. The numbers of bacterial colonies were enumerated after 16 hours of incubation at 37° C. Antimicrobial activity was expressed as percent of killing using the following formula: (CPUcontrol−CFUtreated)/CFUcontrol×100%. To assess the resistance of AvBD analogues (SEQ ID NOs: 5, 6, 7, 8, 9, 10, 11, 12, and 13) to sodium chloride (NaCl), antimicrobial assays were carried out in the presence of 5 mM, 50 mM, 100 mM or 150 mM NaCl. All assays were performed in triplicate.

JAWSII cells = assay: Chemotaxis assay (48-well microchemotaxis chamber); assay type: cell-based, mouse
Procedure: (§1) Migration of JAWSII and CCR-2 transfected CHO-K1 cells in response to CAMPs (SEQ ID NOs: 1, 2, 3, and 4) was determined using a 48-well microchemotaxis chamber technique as previously described. Chemotaxis buffer (Minimum Essential Medium containing 0.1% BSA, 100 U/ml penicillin, and 100 μg/ml streptomycin) and bacterial peptide N-Formyl-methionyl-leucyl-phenylalanine (fMLF, Sigma-Aldrich) were included as negative and positive controls, respectively. The results were presented as chemotactic index (C.I.)=number of migrated cells induced by CAMPs (SEQ ID NOs: 1, 2, 3, and 4)/number of migrated cells induced by chemotactic buffer. The assay was repeated five times.
as §1, with “CCR2-CHO-K1” for “CCR-2 transfected CHO-K1”, “the analogues” for “CAMPs (SEQ ID NOs: 1, 2, 3, and 4)”, “For JAWSII cells, chemotaxis” for “Chemotaxis”, “(C.I.). C.I.=number” for “(C.I.)=number”, “the analogues/number” for “CAMPs (SEQ ID NOs: 1, 2, 3, and 4)/number”

[4] = tested on: CCR-2 transfected CHO-K1 cells; assay: Chemotaxis assay (48-well microchemotaxis chamber); assay type: cell-based, hamster
Procedure: as §1
as §1, with “CCR2-CHO-K1” for “CCR-2 transfected CHO-K1”, “the analogues” for “CAMPs (SEQ ID NOs: 1, 2, 3, and 4)”, “For JAWSII cells, chemotaxis” for “Chemotaxis”, “(C.I.). C.I.=number” for “(C.I.)=number”, “the analogues/number” for “CAMPs (SEQ ID NOs: 1, 2, 3, and 4)/number”

CHO-K1 cells = assay: Cell cytotoxicity assay (MTT); assay type: cell-based, hamster; conditions: 4, 16, 64, 256 μg/ml for 4, 12, 24, and 48 hour
Procedure: The Cell Cytotoxicity Assay includes the following procedures. Mouse immature dendritic cell line, JAWSII (ATCC CRL-11904™), was cultured in Alpha minimum essential medium with ribonucleosides, deoxyribonucleosides, 4 mM L-glutamine, 1 mM sodium pyruvate, and 5 ng/ml murine Granulocyte macrophage colony-stimulating factor (GM-CSF) then supplemented with 20% FBS, 100 U/ml penicillin, and 100 μg/ml streptomycin at 37° C. in humidified air with 5% CO2. CCR-2 transfected CHO-K1 cells were cultured in RPMI-1640 supplemented with 10% FBS, 2 mM L-glutamine, 100 units/ml penicillin and streptomycin, and 500 μg/ml G418 at 37° C. in humidified air with 5% CO2. The cytotoxicity of CAMPs (SEQ ID NOs: 1, 2, 3, and 4) to JASWII and CHO-K1 cells was determined using MTT (3-(4,5-dimethylthiazol-2-yl)-2,5-diphenyltetrazolium bromide, Thermo Fisher Scientific) cell proliferation assay. Cells (5×10^3 cells/well) in 96-well microtiter plates were treated with peptides at 64, 128, 256, and 512 μg/ml for 4, 12, 24, and 48 hours at 37° C. After treatment, 20 μl of 12 mM MTT solution was added to each well and the plate was incubated for 4 hours. The medium in each well was replaced with 100 μl of dimethyl sulfoxide (DMSO, Sigma-Aldrich) to dissolve MTT crystals. The plates were read using a spectrophotometer at 540 nm. The viability of treated cells was expressed as the percentage of viability relative to the untreated control. The experiment was performed in triplicate.
Chicken macrophage cell lines MQ-NCSU and HD11 were maintained in RPMI-1640 media supplemented with 10% fetal bovine serum (FBS), 2% chicken serum, 100 U/ml penicillin and 100 μg/ml streptomycin (Sigma-Aldrich) at 37° C. in humidified air with 5% CO2. CHO-K1 cells were cultured in the same media without 2% chicken serum. For CCR2-transfected CHO-K1 cells, medium was supplemented with 500 μg/ml G418 was added (Sigma-Aldrich). Murine immature dendritic cell line JAWSII (ATCC CRL-11904™) was cultured in Alpha minimum essential medium containing 4 mM L-glutamine, 1 mM sodium pyruvate, 5 ng/ml murine Granulocyte macrophage colony-stimulating factor (GM-CSF), 20% FBS, 100 U/ml penicillin and 100 μg/ml streptomycin at 37° C. in humidified air with 5% CO2. The cell cytotoxicity was determined using the MTT (3-(4,5-dimethylthiazol-2-yl)-2,5-diphenyltetrazolium bromide cell proliferation assay according to the manufacturer's instruction (Thermo Fisher Scientific). Briefly, cells (5×10^3 cells/well) were seeded in 96-well tissue culture plates, incubated overnight and treated with the analogues at concentrations of 4, 16, 64 and 256 μg/ml for 4, 12, 24 and 48 hours at 37° C. After treatment, […] 12 mM MTT solution was added to each well. The plate was incubated for 4 hours and read at 540 nm. Viability was expressed as percentage of viable cells relative to the untreated control. The experiments were performed in triplicate.

| Substance | killing activity compared with AvBD-12 [1] | MBS-Is [2] | impact of NaCl on the killing activity [3] | chemotactic activity (JAWSII cells) | chemotactic activity [4] | killing activity compared with parent peptide [3] | effect on cell viability (CHO-K1 cells) | chemotactic index (C.I.) (JAWSII cells; peptide 64 μg/ml) |
| --- | --- | --- | --- | --- | --- | --- | --- | --- |
| GPDS[Abu]NHDRGLCRVGNCNPGEYLAKYCFEPVIL[Abu]CKPLSPTPTKT (disulfide 12-27, 17-35) [AvBD-12A4] | somewhat reduced | >256 µg/mL | some impact on killing activity due to salt | – | – | – | – | – |
| GPDS[Abu]NHDRGL[Abu]RVGNCNPGEYLAKY[Abu]FEPVIL[Abu]CKPLSPTPTKT (disulfide 17-35) [AvBD-12A5] | – | >256 µg/mL | some impact on killing activity due to salt | did not appear to exhibit chemotactic activity | did not appear to exhibit chemotactic activity | – | – | – |
| GPDS[Abu]NHDRGL[Abu]RVGN[Abu]NPGEYLAKY[Abu]FEPVIL[Abu][Abu]KPLSPTPTKT [AvBD-12A6] | – | >256 µg/mL | some impact on killing activity due to salt | did not appear to exhibit chemotactic activity | did not appear to exhibit chemotactic activity | – | – | – |
| GPHSANHVRGLARVGNANPGLYLAKYAFIPVILAAKPLSPTPTKT [AvBD-12A1] | – | 256 µg/mL | some impact from NaCl | – | mild or little chemotactic activity | more effective than the parent peptide AvBD-12 | – | – |
| GPRSANHKRGLARVGNANPGKYLAKYSFRPVILSSKPLSPTPTKT [AvBD-12A3] | – | – | – | – | – | – | did not appear to have any effect on cell viability | – |
| GPRSSNHKRGLSRVGNSNPGKYLAKYAFRPVILAAKPLSPTPTKT [AvBD-12A2] | – | 32 µg/mL | less adverse impact | – | mild or little chemotactic activity | more effective than the parent peptide AvBD-12 | – | 2.37 |
